Reference: patent publication US7915297B2, “Isoxazole derivatives and use thereof” (SK Holdings Co., Ltd., priority 2005, dated 2011)

Experiments:
ovariectomized ICR mice = assay: In vivo osteoporosis assay in ovariectomized ICR mice (DEXA, micro-CT of spine L3-L6); details: for BMD (g/cm^2) Avg. ± SD / BMD Change (%) / Trabeculae volume Change (%) / Trabeculae volume(mm^2) Avg. ± SD: four weeks; for BMD (g/cm^2) Avg. ± SD: spine L3-L6, DEXA; for BMD Change (%) / Trabeculae volume Change (%): Sham = 0.0
Protocol: Experimental animals were female ICR mice having body weights of 24-28 g which were about 7 weeks old. In each cage, measuring 40×25×17 cm, 2-3 mice were reared at 22° C., RH 50%.
Ovariectomy is known as one of the most widely used techniques for inducing osteoporosis. As in postmenopause case, the ovariectomy-operation induce estrogen insufficient, result in decrease of osteogenesis and increase of bone resorption, lead to osteoporosis. Anaesthetized 7-week-old female ICR mice underwent ovariectomies and, immediately after the removal of both ovaries, they were administered with test compounds to determine the preventive and therapeutic effects thereof on osteoporosis.
1) Preparation of test material: Predetermined amounts of Derivative (1) were suspended in 0.5% CMC to prepare test materials to be administered. As for the control drug alendronate, 0.17% citric acid was added thereto as a pharmacopoeia to aid in the uptake of the drug.
2) Administration period: four weeks
3) Administration route and method: test materials were administered in a volume of 10 ml/kg of body weight, measured on the administration day, into seven groups: (1) intact control (ICR mice bred with typical diet, control); (2) ovariectomy control (the abdomen opened and closed without removal of the ovary, Sham); (3) ovariectomy group (ovaries removed, OVX); (4) alendronate-treated group (a dose of 5 mg/kg/day); (5) Derivative (1) 30 mg/kg/day treated group (OVX+Derivative (1) 30 mpk); (6) Derivative (1) 90 mg/kg/day treated group (OVX+Derivative (1) 90 mpk); and (7) Derivative (1) […] treated group (OVX+Derivative (1) 30 mpkW). Groups (1)˜(6) were orally treated five day a week for four weeks while group (7) was treated once a week for four weeks.
After administration for four weeks, the spine (L3-L6) was analyzed for bone mineral density (BMD) through dual-energy X-ray absorptiometry (DEXA) using a Lunar Pixi #5 instrument. Micro-computed tomography (Micro-CT) was performed to determine the effects of the test materials on bone mass and bone strength and on the tertiary bone mass of the spine (L3-L6).

[1] = system: Wnt/β-catenin signaling (β-catenin activity) in SW480 cell line; assay: Cell-based Wnt agonist screening, TCF luciferase reporter, SW480 (TCF-FL); set-up: species or system human; details: Homo sapiens, % of LiCl (20 mM), 24 h, read-out: Max. Activity (%); for Emax at 120 µM: Con. 120 μM; for Emax at 10 µM: Con. 10 μM
Method in brief: (§1)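 HEK293 and SW480 lines stably carried a 5X TCF firefly luciferase reporter under G418 selection. Cells (8,000–15,000/well, RPMI 1640 with 5% FBS) were grown 24 h, then treated with compound for 24 h. Luciferase activity was expressed as percent of the 20 mM LiCl positive control.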

[2] = system: Wnt/β-catenin signaling (β-catenin activity) in HEK293 cell line; assay: Cell-based Wnt agonist screening, TCF luciferase reporter, HEK293 (TCF-FL); set-up: species or system human; details: Homo sapiens, HEK293, 24 h, % of LiCl (20 mM), 24 h, read-out: Max. Activity (%); for Emax at 60 µM: Conc. 60 μM; for Emax at 30 µM: Conc. 30 μM; for Emax at 120 µM: Conc. 120 μM; for Emax at 10 µM: Conc. 10 μM
Method in brief: as §1

[3] = system: ST-2, a murine bone marrow stromal T cell; assay: Differentiation of ST2 cell line into osteoblasts, alkaline phosphatase activity; type: cell-based; details: Mus musculus, 96 h; ST-2 cells, 11 μM compound, 4 days; control treated only with ascorbic acid and β-glycerolphosphate = 100; read-out: ALP Activity (% Control)
Method in brief: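 Murine ST-2 stromal cells in MEM with 5% FBS were treated with compounds (11 μM, 4 days) in medium with 50 μg/ml ascorbic acid and 5 mM β-glycerolphosphate. ALP activity read by luminescence kit, expressed as % of ascorbate/β-glycerolphosphate-only control.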

[4] = Group 4 (OVX + AD): alendronate 5 mg/kg/day, oral
[5] = Group 5 (OVX + D30): 30 mg/kg/day, oral
[6] = Group 6 (OVX + D90): 90 mg/kg/day, oral
[7] = Group 7 (OVX + W30): 90 mg/kg/week (30 mpkW), once a week

## NCCCC(O)(P(=O)(O)O)P(=O)(O)O [Alendronate, alendronate, reference compound]
Ovariectomized ICR mice; Group 4 (OVX + AD): alendronate 5 mg/kg/day, oral, five day a week
  BMD (g/cm^2) Avg. ± SD: 0.066 ± 0.012 g/cm^2
Ovariectomized ICR mice; [4]
  BMD Change (%): −4.3%
  Trabeculae volume Change (%): −25.1%
Ovariectomized ICR mice; Group 4 (OVX + AD): alendronate 5 mg/kg/day, oral, spine L3-L6, micro-CT
  Trabeculae volume(mm^2) Avg. ± SD: 15.5 ± 3.27 mm^2

## O=C(NCCCn1ccnc1)c1cc(-c2ccco2)on1 [Derivative (1), 5-furan-2-yl-isoxazole-3-carboxylic acid (3-imidazol-1-yl-propyl)-amide]
[1]
  Emax at 120 µM: 957%
Ovariectomized ICR mice; Group 5 (OVX + D30): 30 mg/kg/day, oral, five day a week
  BMD (g/cm^2) Avg. ± SD: 0.061 ± 0.007 g/cm^2
Ovariectomized ICR mice; [5]
  BMD Change (%): −11.6%
  Trabeculae volume Change (%): 4.8%
Ovariectomized ICR mice; Group 5 (OVX + D30): 30 mg/kg/day, oral, spine L3-L6, micro-CT
  Trabeculae volume(mm^2) Avg. ± SD: 21.7 ± 2.43 mm^2
Ovariectomized ICR mice; Group 6 (OVX + D90): 90 mg/kg/day, oral, five day a week
  BMD (g/cm^2) Avg. ± SD: 0.063 ± 0.005 g/cm^2
Ovariectomized ICR mice; [6]
  BMD Change (%): −8.7%
  Trabeculae volume Change (%): 44.4%
Ovariectomized ICR mice; Group 6 (OVX + D90): 90 mg/kg/day, oral, spine L3-L6, micro-CT
  Trabeculae volume(mm^2) Avg. ± SD: 29.9 ± 0.83 mm^2
Ovariectomized ICR mice; [7]
  BMD Change (%): −15.9%
  Trabeculae volume Change (%): 26.1%
  BMD (g/cm^2) Avg. ± SD: 0.058 ± 0.006 g/cm^2
Ovariectomized ICR mice; Group 7 (OVX + W30): 90 mg/kg/week (30 mpkW), once a week, micro-CT
  Trabeculae volume(mm^2) Avg. ± SD: 26.1 ± 1.87 mm^2
Ovariectomized ICR mice; OVX mice, four weeks administration
  therapeutic effect on bone mass compared with alendronate: exceed that of alendronate
Ovariectomized ICR mice; OVX mice, four weeks administration, DEXA
  effect on bone mineral density (BMD) versus OVX group: decrease in bone mineral density to lesser extents compared to the OVX group
Ovariectomized ICR mice; OVX mice, four weeks administration, micro-CT
  effect on bone mass (BV/TV): restrain the decrease of bone mass, but also to increase the bone density to a higher level than before ovariectomy
[2]
  Emax at 60 µM: 70%

## O=C(NCCn1cccn1)c1cc(-c2ccc(F)cc2)on1 [Derivative (87), 5-(4-fluoro-phenyl)-isoxazole-3-carboxylic acid (2-pyrazol-1-yl-ethyl)-amide]
[1]; Con. 30 μM
  Emax at 30 µM: < 20%
[2]
  Emax at 30 µM: < 20%
[3]
  activity at 11 µM: 428%

## O=C(NCCCn1cncn1)c1cc(-c2ccc(Cl)cc2)on1 [Derivative (96), 5-(4-chloro-phenyl)-isoxazole-3-carboxylic acid (3-[1,2,4]triazol-1-yl-propyl)-amide]
[1]
  Emax at 120 µM: 80%
[2]
  Emax at 120 µM: 80%
[3]
  activity at 11 µM: 97%

## O=C(NCCn1cncn1)c1cc(-c2ccc(Cl)cc2)on1 [Derivative (97), 5-(4-chloro-phenyl)-isoxazole-3-carboxylic acid (2-[1,2,4]triazol-1-yl-ethyl)-amide]
[1]
  Emax at 10 µM: 53%
[2]
  Emax at 10 µM: 53%
[3]
  activity at 11 µM: 91%

## O=C(NCCCn1ccnc1)c1cc(-c2ccc(Cl)cc2)on1 [Derivative (98), 5-(4-chloro-phenyl)-isoxazole-3-carboxylic acid (3-imidazol-1-yl-propyl)-amide]
[1]
  Emax at 120 µM: 54%
[2]
  Emax at 120 µM: 54%
[3]
  activity at 11 µM: 90%

## COc1ccc(-c2cc(C(=O)NCCCn3ccnc3)no2)cc1 [Derivative (101), 5-(4-methoxy-phenyl)-isoxazole-3-carboxylic acid (3-imidazol-1-yl-propyl)-amide]
[1]
  Emax at 120 µM: 205%
[2]
  Emax at 120 µM: 205%
[3]
  activity at 11 µM: 592%

## COc1ccc(-c2cc(C(=O)NCCc3ccncc3)no2)cc1 [Derivative (102), 5-(4-methoxy-phenyl)-isoxazole-3-carboxylic acid (2-pyridin-4-yl-ethyl)-amide]
[1]
  Emax at 120 µM: 73%
[2]
  Emax at 120 µM: 73%
[3]
  activity at 11 µM: 148%

## COc1cccc(-c2cc(C(=O)NCCc3ccncc3)no2)c1 [Derivative (103), 5-(3-methoxy-phenyl)-isoxazole-3-carboxylic acid (2-pyridin-4-yl-ethyl)-amide]
[1]
  Emax at 10 µM: 42%
[2]
  Emax at 10 µM: 42%
[3]
  activity at 11 µM: 103%

## COc1ccccc1-c1cc(C(=O)NCCc2ccncc2)no1 [Derivative (104), 5-(2-methoxy-phenyl)-isoxazole-3-carboxylic acid (2-pyridin-4-yl-ethyl)-amide]
[1]; Con. 60 μM
  Emax at 60 µM: 884%
[2]
  Emax at 30 µM: 35%
  Emax at 60 µM: 884%
[3]
  activity at 11 µM: 103%

## O=C(NCCCn1ccnc1)c1cc(-c2ccc([N+](=O)[O-])cc2)on1 [Derivative (114), 5-(4-nitro-phenyl)-isoxazole-3-carboxylic acid (3-imidazol-1-yl-propyl)-amide]
[1]; Con. 1 μM
  Emax at 1 µM: 31%
[2]; Conc. 1 μM
  Emax at 1 µM: 31%
[3]
  activity at 11 µM: 339%
